Data as given in patent publication US20250129103A1, “METHODS FOR TREATMENT OF CANCER” (Frontier Medicines Corporation, priority 2022, published 2025).
Converted amounts (≈) assume the structure as drawn.

Assays:
[1] = molecular target: KRAS G12C (GMPPNP-loaded) and PI3Ka (Ras-binding domain) interaction (Homo sapiens (Human), UniProt P01116, C118S/C51S/C80L/G12C); test: Inhibition of KRAS G12C and PI3Ka binding (AlphaScreen); conditions: KRAS G12C loaded with GMPPNP, PI3Ka RBD, 2 hours preincubation; read-out: PI3K RBD K-Ras IC50
KRAS G12C (GMPPNP-loaded) and PI3Ka (Ras-binding domain) interaction, sequence (P01116 other isoform, or with tags, fused parts or gaps G12C/C51S/C80L/C118S): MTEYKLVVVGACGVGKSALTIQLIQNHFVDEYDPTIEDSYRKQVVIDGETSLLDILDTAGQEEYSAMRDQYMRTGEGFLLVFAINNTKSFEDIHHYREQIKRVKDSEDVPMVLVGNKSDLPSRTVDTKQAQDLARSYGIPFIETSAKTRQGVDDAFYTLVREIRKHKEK
In short: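 Biotin-AviTag Cys-light KRAS G12C (aa 1-169, C51S/C80L/C118S), GMPPNP-loaded, 1.5 nM, preincubated 2 h with compound, then His-tagged PI3Ka RBD (aa 157-300, 100 nM) plus AlphaScreen beads added for 60-90 min, RT. Buffer Hepes pH 7.4, 10 μM GMPPNP, 2% DMSO; 10-point 1:3 from 50 μM; 4-parameter IC50.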

[2] = molecular target: KRAS G12C (GMPPNP-loaded) and cRAF (Ras-binding domain) interaction (Homo sapiens (Human), UniProt P01116, C118S/C51S/C80L/G12C); test: Inhibition of KRAS G12C and cRAF binding (AlphaScreen); conditions: KRAS G12C loaded with GMPPNP, cRaf RBD, 2 hours preincubation; read-out: Raf-1 RBD K-Ras IC50
KRAS G12C (GMPPNP-loaded) and cRAF (Ras-binding domain) interaction, sequence (P01116 other isoform, or with tags, fused parts or gaps G12C/C51S/C80L/C118S): as above
In short: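 AlphaScreen readout (680 nm excitation, 570 nm emission) of RBD binding after a 60-90 min bead step at room temperature. This step follows 2 h compound exposure of GMPPNP-preloaded KRAS G12C in Hepes pH 7.4 buffer with MgCl2 and 10 μM GMPPNP.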

[3] = Determination of kinetic solubility (pH 7.4); type: physicochemical; conditions: phosphate buffer, pH 7.4, aqueous buffer, kinetic from dmso stock, 50 mM phosphate buffer pH 7.4, read-out: Ksol, pH 7.4
In short: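 Solubility taken from filtrate peak areas on a calibration curve (HPLC-UV, LC-MS/MS). Before filtration and centrifugation, compound was shaken for 2 h at room temperature in pH 7.4 50 mM phosphate buffer.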

[4] = Determination of logD (1-octanol / phosphate buffer pH 7.4); type: physicochemical; conditions: 1-octanol/phosphate buffer, pH 7.4, pH 7.4, 1-octanol/phosphate buffer; read-out: Log D, pH 7.4
In short: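 Each phase analysed by LCMS after 1 h shaking at 800 rpm and centrifugation, room temperature. Phases were mutually saturated 1-octanol and 100 mM phosphate buffer at pH 7.4. LogD derived from the phase concentrations.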

SMILES	IC50 [1]	IC50 [2]	solubility kinetic at 2 h [3]	logD [4]
N#CC[C@H]1CN(c2nc(OCC34CCCN3CCC4)nc3c2CCN(c2cccc4cccc(Cl)c24)C3)CCN1C(=O)/C=C/c1nc(C(F)(F)F)no1 [Example 17, (S,E)-2-(4-(7-(8-chloronaphthalen-1-yl)-2-((hexahydro-1H-pyrrolizin-7a-yl)methoxy)-5,6,7,8-tetrahydropyrido[3,4-d]pyrimidin-4-yl)-1-(3-(3-(trifluoromethyl)-1,2,4-oxadiazol-5-yl)acryloyl)piperazin-2-yl)acetonitrile]	< 10 nM	< 10 nM	0.01 µg/mL (≈ 0.0134 µM)	4.32
CN1CC[C@@H]1/C=C/C(=O)N1CCN(c2nc(OC[C@@]34CCCN3C[C@H](F)C4)nc3c(F)c(-c4cccc(Cl)c4C4CC4)ncc23)C[C@@H]1CC#N [Compound 305]	10 to 100 nM	10 to 100 nM	130 µg/mL (≈ 186 µM)	2.87
CC(C)c1noc(/C=C/C(=O)N2CCN(c3nc(OC[C@]45CCCN4C[C@H](F)C5)nc4c3CCN(c3cccc5ccc(F)c(Cl)c35)C4)C[C@@H]2CC#N)n1 [Compound 131]	10 to 100 nM	10 to 100 nM	0.01 µg/mL (≈ 0.0132 µM)	4.96
N#CC[C@H]1CN(c2nc(OC[C@@]34CCCN3C[C@H](F)C4)nc3c(F)c(-c4cccc5cccc(F)c45)ncc23)CCN1C(=O)/C=C/CN1[C@@H]2CC[C@H]1COC2 [Compound 94, 2-((S)-1-((E)-4-((1R,5S)-3-oxa-8-azabicyclo[3.2.1]octan-8-yl)but-2-enoyl)-4-(8-fluoro-7-(8-fluoronaphthalen-1-yl)-2-(((2R,7aS)-2-fluorotetrahydro-1H-pyrrolizin-7a(5H)-yl)methoxy)pyrido[4,3-d]pyrimidin-4-yl)piperazin-2-yl)acetonitrile]	< 10 nM	< 10 nM	90.2 µg/mL (≈ 120 µM)	3.11
N#CC[C@H]1CN(c2nc(OCC34CCCN3CCC4)nc3c2CCN(c2cccc4ccc(F)c(Cl)c24)C3)CCN1C(=O)/C=C/CN1CCOCC1 [Compound 50]	< 10 nM	< 10 nM	124 µg/mL (≈ 171 µM)	2.27
Cc1cc(/C=C/C(=O)N2CCN(c3nc(OC[C@@]45CCCN4C[C@H](F)C5)nc4c(F)c(-c5cccc(Cl)c5C5CC5)ncc34)C[C@@H]2CC#N)nc(C)n1 [Compound 102, 2-((S)-4-(7-(3-chloro-2-cyclopropylphenyl)-8-fluoro-2-(((2R,7aS)-2-fluorotetrahydro-1H-pyrrolizin-7a(5H)-yl)methoxy)pyrido[4,3-d]pyrimidin-4-yl)-1-((E)-3-(2,6-dimethylpyrimidin-4-yl)acryloyl)piperazin-2-yl)acetonitrile]	< 10 nM	< 10 nM	12 µg/mL (≈ 16.2 µM)	3.98
Cc1cc(/C=C/C(=O)N2CCN(c3nc(OC[C@@]45CCCN4C[C@H](F)C5)nc4c(F)c(-c5cccc6cccc(F)c56)ncc34)C[C@@H]2CC#N)nc(C)n1 [Compound 214]	< 10 nM	10 to 100 nM	6.14 µg/mL (≈ 8.37 µM)	4.02
N#CC[C@H]1CN(c2nc(OCC34CCCN3CCC4)nc3c2CCN(c2cccc4cccc(Cl)c24)C3)CCN1C(=O)/C=C/CN1CCSCC1 [Compound 171]	< 10 nM	< 10 nM	108 µg/mL (≈ 149 µM)	3.3
Cc1cc(N)nc(-c2ncc3c(N4CCN(C(=O)/C=C/CN5CCOCC5)[C@@H](CC#N)C4)nc(OC[C@@]45CCCN4C[C@H](F)C5)nc3c2F)c1C(F)(F)F [Compound 55]	10 to 100 nM	10 to 100 nM	128 µg/mL (≈ 169 µM)	1.53
N#CC[C@H]1CN(c2nc(OC[C@@]34CCCN3C[C@H](F)C4)nc3c(F)c(-c4cccc5ccc(F)c(Cl)c45)ncc23)CCN1C(=O)/C=C/CN1CC2CCC(C1)O2 [Example 78, 2-((2S)-1-((E)-4-(8-oxa-3-azabicyclo[3.2.1]octan-3-yl)but-2-enoyl)-4-(7-(8-chloro-7-fluoronaphthalen-1-yl)-8-fluoro-2-(((2R,7aS)-2-fluorotetrahydro-1H-pyrrolizin-7a(5H)-yl)methoxy)pyrido[4,3-d]pyrimidin-4-yl)piperazin-2-yl)acetonitrile]	< 10 nM	< 10 nM	85 µg/mL (≈ 108 µM)	3.64
CO[C@@H]1CCN(C/C=C/C(=O)N2CCN(c3nc(OC[C@@]45CCCN4C[C@H](F)C5)nc4c(F)c(-c5cccc6ccc(F)c(Cl)c56)ncc34)C[C@@H]2CC#N)C1 [Example 85, 2-((S)-4-(7-(8-chloro-7-fluoronaphthalen-1-yl)-8-fluoro-2-(((2R,7aS)-2-fluorotetrahydro-1H-pyrrolizin-7a(5H)-yl)methoxy)pyrido[4,3-d]pyrimidin-4-yl)-1-((E)-4-((R)-3-methoxypyrrolidin-1-yl)but-2-enoyl)piperazin-2-yl)acetonitrile]	< 10 nM	< 10 nM	85.5 µg/mL (≈ 110 µM)	2.97
CO[C@H]1CCN(C/C=C/C(=O)N2CCN(c3nc(OC[C@@]45CCCN4C[C@H](F)C5)nc4c(F)c(-c5cccc6ccc(F)c(F)c56)ncc34)C[C@@H]2CC#N)C1 [Compound 217]	< 10 nM	< 10 nM	99.9 µg/mL (≈ 132 µM)	2.01
N#CC[C@H]1CN(c2nc(OC[C@@]34CCCN3C[C@H](F)C4)nc3c(F)c(-c4cccc5ccc(F)c(Cl)c45)ncc23)CCN1C(=O)/C=C/CN1C[C@H]2C[C@@H]1CO2 [Example 72, 2-((S)-1-((E)-4-((1R,4R)-2-oxa-5-azabicyclo[2.2.1]heptan-5-yl)but-2-enoyl)-4-(7-(8-chloro-7-fluoronaphthalen-1-yl)-8-fluoro-2-(((2R,7aS)-2-fluorotetrahydro-1H-pyrrolizin-7a(5H)-yl)methoxy)pyrido[4,3-d]pyrimidin-4-yl)piperazin-2-yl)acetonitrile]	< 10 nM	< 10 nM	143 µg/mL (≈ 185 µM)	3.12
C#Cc1c(F)ccc2cccc(-c3ncc4c(N5CCN(C(=O)/C=C/c6cc(C)nc(C)n6)[C@@H](CC#N)C5)nc(OC[C@@]56CCCN5C[C@H](F)C6)nc4c3F)c12 [Compound 101, 2-((S)-1-((E)-3-(2,6-dimethylpyrimidin-4-yl)acryloyl)-4-(7-(8-ethynyl-7-fluoronaphthalen-1-yl)-8-fluoro-2-(((2R,7aS)-2-fluorotetrahydro-1H-pyrrolizin-7a(5H)-yl)methoxy)pyrido[4,3-d]pyrimidin-4-yl)piperazin-2-yl)acetonitrile]	< 10 nM	< 10 nM	1.49 µg/mL (≈ 1.97 µM)	3.32
N#CC[C@H]1CN(c2nc(OC[C@@]34CCCN3C[C@H](F)C4)nc3c(F)c(-c4cccc5cccc(Cl)c45)ncc23)CCN1C(=O)/C=C/CN1CCOCC1 [Compound 48]	10 to 100 nM	10 to 100 nM	110 µg/mL (≈ 148 µM)	2.71
CC(C)c1noc(/C=C/C(=O)N2CCN(c3nc(OC[C@@]45CCCN4C[C@H](F)C5)nc4c3CCN(c3cccc5ccc(F)c(Cl)c35)C4)C[C@@H]2CC#N)n1 [Compound 128]	10 to 100 nM	10 to 100 nM	0.01 µg/mL (≈ 0.0132 µM)	4.56
Cc1noc(/C=C/C(=O)N2CCN(c3nc(OC[C@@]45CCCN4C[C@H](F)C5)nc4c(F)c(-c5cccc6cccc(Cl)c56)ncc34)C[C@@H]2CC#N)n1 [Example 4, 2-((S)-4-(7-(8-chloronaphthalen-1-yl)-8-fluoro-2-(((2R,7aS)-2-fluorotetrahydro-1H-pyrrolizin-7a(5H)-yl)methoxy)pyrido[4,3-d]pyrimidin-4-yl)-1-((E)-3-(3-methyl-1,2,4-oxadiazol-5-yl)acryloyl)piperazin-2-yl)acetonitrile]	10 to 100 nM	10 to 100 nM	3.98 µg/mL (≈ 5.48 µM)	3.54
C[C@@H]1CN(C/C=C/C(=O)N2CCN(c3nc(OC[C@@]45CCCN4C[C@H](F)C5)nc4c(F)c(-c5cccc6cccc(Cl)c56)ncc34)C[C@@H]2CC#N)C[C@@H](C)O1 [Compound 187]	< 10 nM	< 10 nM	84 µg/mL (≈ 109 µM)	3.61
N#CC[C@H]1CN(c2nc(OC[C@@]34CCCN3C[C@H](F)C4)nc3c(F)c(-c4cccc5ccc(F)c(Cl)c45)ncc23)CCN1C(=O)/C=C/CN1CC2(COC2)C1 [Compound 161]	< 10 nM	< 10 nM	87.7 µg/mL (≈ 113 µM)	2.75
